The values below come from PubChem BioAssay (NCI).

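Protocol summary: plate cells (96-well), add compound at 5 concentrations, incubate 48 h, interpolate endpoints linearly. At the GI50, growth is halved. TGI denotes the concentration required for complete inhibition of growth.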

Among the test systems are IGROV1 ovarian; HOP-18 NSCLC; DLD-1 colon; DMS 273 small cell lung; DMS 114 small cell lung; NCI-H23 lung; M14 melanoma.
Common to all, as to assay: NCI-60 cell line screen, 48 h

Regarding `CC1=C(C(=O)NCc2ccccc2)C(c2ccc([N+](=O)[O-])cc2)C(C(=O)NCc2ccccc2)=C(C)N1`, the TGI in the experiment with IGROV1 ovarian, in the experiment on HOP-18 NSCLC, with DLD-1 colon, in the experiment with DMS 273 small cell lung, in the experiment with DMS 114 small cell lung and in the experiment with NCI-H23 lung was over 100 µM in each case. For the same compound, in the experiment on M14 melanoma, the TGI is 48.5 µM.
Consider `COc1ccc(NC(=O)CC/C(CC(=O)C(C)(C)C)=N\NC(=O)C(N)=O)cc1`, for which the TGI with IGROV1 ovarian, in the experiment with DLD-1 colon, in the experiment on DMS 114 small cell lung, in the experiment with NCI-H23 lung and in the experiment with M14 melanoma was over 100 µM throughout.
For the compound `O=C1c2ccccc2NC1(c1ccccc1)c1c(-c2ccccc2)[nH]c2ccccc12` (stereo unspecified), the TGI with IGROV1 ovarian, in the experiment on HOP-18 NSCLC, in the experiment with DLD-1 colon, in the experiment with DMS 273 small cell lung, in the experiment with DMS 114 small cell lung and with NCI-H23 lung was over 100 µM in each case. Besides, in the experiment on M14 melanoma, the TGI is over 100 µM.
Regarding `CCOC(=O)C(=O)Nc1ccc(Cl)cc1C`, the TGI in the experiment on IGROV1 ovarian, with HOP-18 NSCLC, with DLD-1 colon, with DMS 273 small cell lung, with DMS 114 small cell lung and with NCI-H23 lung was over 100 µM throughout. The TGI with M14 melanoma was over 100 µM.
As to `CN(CCc1ccccn1)c1nc(=[N+](C)C)ss1`, the TGI in the experiment with IGROV1 ovarian, in the experiment on HOP-18 NSCLC, in the experiment with DLD-1 colon, in the experiment on DMS 273 small cell lung, in the experiment with DMS 114 small cell lung and in the experiment on NCI-H23 lung was over 100 µM each time. Also, in the experiment with M14 melanoma, the TGI is over 100 µM.
Regarding `O=C(Cc1csc(-c2nc(CC(=O)NNc3ccccc3)cs2)n1)NNc1ccccc1`, the TGI was over 100 µM in the experiment with IGROV1 ovarian; over 100 µM in the experiment on HOP-18 NSCLC; over 100 µM in the experiment on DLD-1 colon; 34.2 µM in the experiment with DMS 273 small cell lung; 45.1 µM in the experiment with DMS 114 small cell lung; over 100 µM with NCI-H23 lung. The TGI with M14 melanoma was over 100 µM.
Turning to `O=C(O)/C(Cl)=C(\Cl)C(=O)NC1C2CC3CC(C2)CC1C3` (stereo unspecified), the TGI in the experiment on IGROV1 ovarian, in the experiment with HOP-18 NSCLC, in the experiment with DLD-1 colon, in the experiment with DMS 273 small cell lung, in the experiment with DMS 114 small cell lung and with NCI-H23 lung was over 100 µM in each case. Further, in the experiment on M14 melanoma, the TGI was over 100 µM.
Take `C#CCN(N=O)C(=O)NC(CCCNC(=O)OCc1ccccc1)C(=O)OCc1ccccc1` (stereo unspecified): the TGI with IGROV1 ovarian, in the experiment with DLD-1 colon, with DMS 273 small cell lung, in the experiment on DMS 114 small cell lung, in the experiment on NCI-H23 lung and with M14 melanoma was over 100 µM throughout.
On to `CN(C)CCNC(=O)c1cccc2c(Nc3ccc(S(N)(=O)=O)cc3)c3ccccc3nc12`, for which the TGI in the experiment with IGROV1 ovarian was 16 µM; in the experiment on HOP-18 NSCLC it was 9.2 µM; in the experiment on DMS 273 small cell lung, 3.71 µM; in the experiment with DMS 114 small cell lung, 2.3 µM; in the experiment on NCI-H23 lung, 5.39 µM; with M14 melanoma, 5.72 µM.
`NCCN.NCCN.O=C[O-].O=C[O-].[Co+3].[O-][Cl+3]([O-])([O-])[O-]`: the GI50 in the experiment on IGROV1 ovarian, in the experiment on HOP-18 NSCLC, in the experiment with DLD-1 colon, in the experiment on DMS 114 small cell lung, with NCI-H23 lung and in the experiment with M14 melanoma was over 100 µM throughout. The TGI with IGROV1 ovarian, in the experiment on HOP-18 NSCLC, in the experiment with DLD-1 colon, in the experiment with DMS 114 small cell lung, in the experiment with NCI-H23 lung and in the experiment with M14 melanoma was over 100 µM in each case.
For `Cc1ccc(NC(=O)C(=O)CC(=O)C2CCOC2=O)c(C)c1` (stereo unspecified), the TGI in the experiment on IGROV1 ovarian, with HOP-18 NSCLC, in the experiment with DLD-1 colon, with DMS 273 small cell lung, in the experiment with DMS 114 small cell lung and in the experiment on NCI-H23 lung was over 100 µM in each case. Moreover, the TGI in the experiment on M14 melanoma was over 100 µM.
Regarding `CC(=O)O[C@H]1CCC2[C@@H]3CCC4=C(O)C(=O)C(C#N)C[C@]4(C)C3CC[C@@]21C` (stereo partly specified), the TGI is over 100 µM with IGROV1 ovarian; over 100 µM with DLD-1 colon; over 100 µM with DMS 273 small cell lung; 81.1 µM in the experiment on DMS 114 small cell lung; over 100 µM in the experiment on NCI-H23 lung; over 100 µM in the experiment on M14 melanoma.
As to `CN(CC#N)C1CCCC[C@H]1O` (stereo partly specified), the TGI in the experiment with IGROV1 ovarian, in the experiment with HOP-18 NSCLC, in the experiment on DLD-1 colon, with DMS 273 small cell lung, in the experiment with DMS 114 small cell lung and in the experiment on NCI-H23 lung was over 100 µM in each case. In addition, the TGI in the experiment on M14 melanoma is over 100 µM.
On to `CN1C(c2ccccc2)CS(=O)(=O)CS1(=O)=O` (stereo unspecified), for which the TGI with IGROV1 ovarian, with HOP-18 NSCLC, with DLD-1 colon, in the experiment on DMS 273 small cell lung, in the experiment on DMS 114 small cell lung and with NCI-H23 lung was over 100 µM throughout. In addition, the TGI in the experiment on M14 melanoma was over 100 µM.
For the compound `Cc1ccc(C2NC(=O)c3ccccc3N2)s1` (stereo unspecified), the TGI is over 100 µM with IGROV1 ovarian; over 100 µM in the experiment with DLD-1 colon; over 100 µM in the experiment with DMS 273 small cell lung; over 100 µM in the experiment on DMS 114 small cell lung; 58.2 µM in the experiment with NCI-H23 lung; over 100 µM with M14 melanoma.
`Cc1ccccc1C(=O)Oc1ccc(O)cc1`: the TGI in the experiment with IGROV1 ovarian, with HOP-18 NSCLC, in the experiment with DLD-1 colon, in the experiment with DMS 273 small cell lung, in the experiment with NCI-H23 lung and in the experiment on M14 melanoma was over 100 µM each time.
With `O=S(=O)(N/N=C/c1cccc(Cl)c1Cl)c1ccccc1`, the TGI in the experiment with IGROV1 ovarian was over 100 µM; in the experiment with HOP-18 NSCLC it was over 100 µM; with DLD-1 colon, over 100 µM; in the experiment on DMS 273 small cell lung, over 100 µM; in the experiment on DMS 114 small cell lung it was 90.3 µM; with NCI-H23 lung it was over 100 µM. In the experiment on M14 melanoma, this compound returned a TGI of over 100 µM.
Take `O=C(CC1(O)C(=O)Nc2ccccc21)c1ccco1` (stereo unspecified): the TGI in the experiment with IGROV1 ovarian, in the experiment with DLD-1 colon, in the experiment with DMS 273 small cell lung, with DMS 114 small cell lung, with NCI-H23 lung and in the experiment on M14 melanoma was over 100 µM throughout.
Regarding `O=c1cc(-c2ccccc2)oc2cc(O)cc(O)c12`, the TGI amounted to 34 µM with DMS 273 small cell lung, 58.2 µM in the experiment on DMS 114 small cell lung, 62.8 µM in the experiment with NCI-H23 lung and 82.9 µM in the experiment on M14 melanoma.
In the case of `CC(=O)[O-].[Mn+3].[O-]c1ccccc1C=NCCN=Cc1ccccc1[O-]`, the GI50 in the experiment with IGROV1 ovarian was over 100 µM; in the experiment on HOP-18 NSCLC, over 100 µM; in the experiment with DLD-1 colon it was 56.5 µM; with DMS 273 small cell lung, over 100 µM; with NCI-H23 lung it was 58.9 µM; in the experiment with M14 melanoma, over 100 µM. The TGI with IGROV1 ovarian, in the experiment on HOP-18 NSCLC, in the experiment on DLD-1 colon, in the experiment with DMS 273 small cell lung, in the experiment on NCI-H23 lung and in the experiment with M14 melanoma was over 100 µM each time.
For `CC1=C(C(=O)Nc2cc(=O)n(C)c(=O)n2C)C(c2ccc([N+](=O)[O-])cc2)C(C(=O)Nc2cc(=O)n(C)c(=O)n2C)=C(C)N1`, the TGI in the experiment on IGROV1 ovarian, with HOP-18 NSCLC, with DLD-1 colon, in the experiment on DMS 114 small cell lung, in the experiment with NCI-H23 lung and with M14 melanoma was over 100 µM in each case.
With `O=S(=O)(SCc1ccccc1)C(c1ccccc1)c1ccccc1`, the TGI with IGROV1 ovarian is over 100 µM; in the experiment on DLD-1 colon, 55.4 µM; with DMS 273 small cell lung, over 100 µM; in the experiment on DMS 114 small cell lung, 48.1 µM; with NCI-H23 lung, 77.6 µM; in the experiment with M14 melanoma, 59.7 µM.
Take `O=C(Cc1nc2ccccc2s1)C(=O)Nc1cccc(Cl)c1`: the TGI in the experiment on IGROV1 ovarian, in the experiment on DLD-1 colon, in the experiment on DMS 273 small cell lung, with DMS 114 small cell lung, with NCI-H23 lung and with M14 melanoma was over 100 µM in each case.
As for `COc1ccc(C(=O)C(c2ccc(OC)cc2)C2OC(=O)C(Cl)=C2Cl)cc1` (stereo unspecified), the TGI in the experiment on IGROV1 ovarian, in the experiment on HOP-18 NSCLC, in the experiment with DLD-1 colon, in the experiment with DMS 114 small cell lung, in the experiment on NCI-H23 lung and with M14 melanoma was over 100 µM throughout.
Turning to `COc1ccc(Cc2cc3c(cc2OCC(=O)O)OCO3)cc1`, the TGI with IGROV1 ovarian, in the experiment with DLD-1 colon, in the experiment on DMS 114 small cell lung, in the experiment on NCI-H23 lung and with M14 melanoma was over 100 µM throughout.
As to `CN(C)/N=C(/c1nc2ccc([N+](=O)[O-])cc2[nH]c1=O)C(O)c1ccco1` (stereo unspecified), the TGI in the experiment on IGROV1 ovarian, in the experiment on DLD-1 colon, with DMS 273 small cell lung, in the experiment on DMS 114 small cell lung, in the experiment with NCI-H23 lung and in the experiment with M14 melanoma was over 100 µM in each case.
Take `COC(=O)CCC(=O)Nc1cc(Cl)ccc1Cl`: the TGI with IGROV1 ovarian, in the experiment on HOP-18 NSCLC, in the experiment with DLD-1 colon, in the experiment with DMS 114 small cell lung, with NCI-H23 lung and in the experiment on M14 melanoma was over 100 µM in each case.
In the case of `NC(=O)c1coc(C2OC(CO)C(O)C2O)n1` (stereo unspecified), the TGI in the experiment with IGROV1 ovarian, in the experiment with HOP-18 NSCLC, in the experiment on DMS 273 small cell lung, in the experiment on DMS 114 small cell lung, with NCI-H23 lung and in the experiment on M14 melanoma was over 100 µM in each case.
